Results reported in patent US20190127359A1, “Compounds & Methods for the Enhanced Degradation of Targeted Proteins & Other Polypeptides by an E3 Ubiquitin Ligase” (YALE UNIVERSITY, priority 2012, published 2019).

What was measured:
VHL [1] = target: T1, VHL (Homo sapiens, UniProt P40337); experiment: WaterLOGSY and saturation transfer difference (STD) NMR binding; conditions: FIG. 2
VHL [2] = target: T1, VHL; experiment: Fluorescence polarization competition assay (HIF-1α peptide FP displacement)

Compound | binding to VHL by WaterLOGSY NMR spectroscopy (VHL [1]) | IC50 (VHL [2]; IC50 (μM) 1% DMSO, 1% DMSO) [µM] | IC50 (VHL [2]; IC50 (μM) 10% DMSO, 10% DMSO) [µM]
O=C(O)[C@@H]1C[C@@H](O)CN1 [L-Hyp] | not | – | –
Cc1cc(CC(=O)N2C[C@H](O)C[C@H]2C(=O)NCc2ccc(-c3ccn[nH]3)cc2)on1 [VL160] | – | 9 | 12.1
Cc1cc(CC(=O)N2C[C@H](O)C[C@H]2C(=O)N[C@@H](CO)c2ccc(Cl)cc2)on1 [VL161] | – | 35 | 36.4

Further lines, results first:

binding to VHL by WaterLOGSY NMR spectroscopy (VHL [1]) | IC50 (VHL [2]; IC50 (μM) 1% DMSO, 1% DMSO) [µM] | IC50 (VHL [2]; IC50 (μM) 10% DMSO, 10% DMSO) [µM] | Compound
– | – | 235 | Cc1cc(CC(=O)N2C[C@H](O)C[C@H]2C(=O)N[C@H](CO)c2ccc(Cl)cc2)on1 [VL162]
– | 610 | 508 | CCCNC(=O)OC[C@@H](NC(=O)[C@@H]1C[C@@H](O)CN1C(=O)Cc1cc(C)no1)c1ccc(Cl)cc1 [VL163]
– | 40 | 72.9 | CCCNC(=O)OC[C@H](NC(=O)[C@@H]1C[C@@H](O)CN1C(=O)Cc1cc(C)no1)c1ccc(Cl)cc1 [VL164]
